Assay results from patent USRE48805E1, “Method for cancer targeting treatment and detection of arginine using albumin-binding arginine deiminase fusion protein” (Vision Global Holdings Ltd., priority 2013, dated 2021).

Assays:
[1] = tested on: Mia-paca-2 pancreatic cancer cell xenografts; assay: In vivo efficacy on Mia-paca-2 pancreatic cancer cell xenografts; design: species or system Nude balb/c mice (human pancreatic cancer xenograft); settings: 100 mg/kg once a week, intraperitoneal, end of the time course
Protocol: Nude balb/c mice (4-6 weeks) are used and they are allowed to acclimatize for a week before the treatment. Mice are inoculated subcutaneously with 2×10^6 cancer cells in 100 μl of 1:1 PBS:Matrigel. Matrigel is used to augment the growth of tumors. Two weeks later, the mice are randomly separated into four groups of 4 animals in each group. Mice are intraperitoneally administered with PBS (control), AAD (5 U; twice a week), Gemcitabine, Gem (100 mg/kg; once a week) or AAD+Gem (a combination of both AAD and Gem) in 200 μl PBS. Tumor size is measured by caliper and tumor volume is calculated using formula: (length×width^2)/2. Body weight is measured every week. After the mice are sacrificed by end of the time course, the tumors are excised and weighed. […] The difference in the tumor size between control and AAD fusion protein-treatment group is about 60% at Day 28.

[2] = tested on: 22Rv1 prostate cancer cell xenografts; assay: In vivo efficacy on 22Rv1 prostate cancer cell xenografts; design: species or system Nude balb/c mice (human prostate cancer xenograft); settings: 10 mg/kg once a week, intraperitoneal
Protocol: Nude balb/c mice (4-6 weeks) are used and they are allowed to acclimatize for a week before the treatment. Mice are inoculated subcutaneously with 3×10^6 cancer cells in 100 μl PBS. Two weeks later, the mice are randomly separated into four groups of 5 animals in each group. Mice are intraperitoneally administered with PBS (control), AAD (5 U; twice a week), Docetaxel, DTX (10 mg/kg; once a week) or AAD+DTX (a combination of both AAD and DTX) in 200 ul PBS. Tumor size is measured by caliper and tumor volume is calculated using formula: (length×width^2)/2. Body weight is measured every week. After the mice are sacrificed by end of the time course, the tumors are excised and weighed.
The difference in the tumor size between control and AAD fusion protein- or DTX-treatment groups are about 55% and 54% at Day 22, respectively. Besides, the combination of AAD fusion protein and DTX-treatment group has a synergistic effect on tumor growth inhibition. Tumor growth of the combination treatment group is inhibited by about 94% when compared to that of the control group.

Compound | tumor size compared to control [1] | difference in the tumor size between control and DTX-treatment group ([2]; Day 22) [%] | tumor size compared to control ([2]; end of the time course)
Nc1ccn([C@@H]2O[C@H](CO)[C@@H](O)C2(F)F)c(=O)n1 [Gemcitabine] | significantly lower than that in control | – | –
CC(=O)O[C@@]12CO[C@@H]1C[C@H](O)[C@@]1(C)C(=O)[C@H](O)C3=C(C)[C@@H](OC(=O)[C@H](O)[C@@H](NC(=O)OC(C)(C)C)c4ccccc4)C[C@@](O)([C@@H](OC(=O)c4ccccc4)[C@H]21)C3(C)C [docetaxel] | – | ~54 | significantly lower than that in control
